{"source": "paper PMC6407917", "about": "“Identification of GSK3186899/DDD853651 as a Preclinical Development Candidate for the Treatment of Visceral Leishmaniasis” (Journal of Medicinal Chemistry, 2018)", "test_in_all_cases": "biochemical", "set-up_in_all_cases": "species or system HEK293/K-562/placenta mixed human extract; Kinobeads chemoproteomic competition binding, quantified by TMT LC-MS/MS, dose response up to 20 uM", "key": {"MET": {"target": "MET (Homo sapiens, UniProt P08581)"}, "CLK2": {"target": "CLK2 (Homo sapiens, UniProt P49760)"}, "TYK2": {"target": "TYK2 (Homo sapiens, UniProt P29597)", "sequence (P29597 whole entry)": "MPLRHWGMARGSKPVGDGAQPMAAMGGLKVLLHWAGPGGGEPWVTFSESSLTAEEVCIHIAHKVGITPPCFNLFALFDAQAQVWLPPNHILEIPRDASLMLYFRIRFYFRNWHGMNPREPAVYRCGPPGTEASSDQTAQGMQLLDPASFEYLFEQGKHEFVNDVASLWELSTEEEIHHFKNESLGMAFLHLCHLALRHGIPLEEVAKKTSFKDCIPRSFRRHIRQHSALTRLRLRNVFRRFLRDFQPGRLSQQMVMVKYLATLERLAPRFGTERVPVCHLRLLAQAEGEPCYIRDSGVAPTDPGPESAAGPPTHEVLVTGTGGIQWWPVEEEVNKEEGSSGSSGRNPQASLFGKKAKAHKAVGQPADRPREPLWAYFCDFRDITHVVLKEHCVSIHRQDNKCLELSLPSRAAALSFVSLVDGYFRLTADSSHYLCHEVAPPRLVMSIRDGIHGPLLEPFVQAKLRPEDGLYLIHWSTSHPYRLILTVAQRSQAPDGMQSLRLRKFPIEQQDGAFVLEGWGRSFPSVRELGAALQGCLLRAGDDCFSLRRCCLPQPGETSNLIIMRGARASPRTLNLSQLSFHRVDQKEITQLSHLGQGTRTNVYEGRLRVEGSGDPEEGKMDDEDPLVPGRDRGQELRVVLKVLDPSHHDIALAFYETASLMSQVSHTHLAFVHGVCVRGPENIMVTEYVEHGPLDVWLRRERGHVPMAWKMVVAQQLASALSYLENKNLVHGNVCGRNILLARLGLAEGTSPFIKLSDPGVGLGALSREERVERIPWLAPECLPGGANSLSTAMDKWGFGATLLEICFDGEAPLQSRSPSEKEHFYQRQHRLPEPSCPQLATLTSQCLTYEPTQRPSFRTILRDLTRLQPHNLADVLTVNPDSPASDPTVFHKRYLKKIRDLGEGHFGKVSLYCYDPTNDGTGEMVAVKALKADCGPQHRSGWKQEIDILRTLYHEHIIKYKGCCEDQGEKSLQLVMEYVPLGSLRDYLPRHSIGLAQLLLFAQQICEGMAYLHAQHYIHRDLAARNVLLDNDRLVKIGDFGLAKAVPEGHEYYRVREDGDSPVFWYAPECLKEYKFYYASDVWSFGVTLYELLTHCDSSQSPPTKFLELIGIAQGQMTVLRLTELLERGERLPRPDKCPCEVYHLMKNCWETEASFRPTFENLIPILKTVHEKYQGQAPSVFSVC"}, "MAP4K4": {"target": "MAP4K4 (Homo sapiens, UniProt O95819)"}, "MAPK7": {"target": "MAPK7 (Homo sapiens, UniProt Q13164)", "sequence (Q13164 whole entry)": "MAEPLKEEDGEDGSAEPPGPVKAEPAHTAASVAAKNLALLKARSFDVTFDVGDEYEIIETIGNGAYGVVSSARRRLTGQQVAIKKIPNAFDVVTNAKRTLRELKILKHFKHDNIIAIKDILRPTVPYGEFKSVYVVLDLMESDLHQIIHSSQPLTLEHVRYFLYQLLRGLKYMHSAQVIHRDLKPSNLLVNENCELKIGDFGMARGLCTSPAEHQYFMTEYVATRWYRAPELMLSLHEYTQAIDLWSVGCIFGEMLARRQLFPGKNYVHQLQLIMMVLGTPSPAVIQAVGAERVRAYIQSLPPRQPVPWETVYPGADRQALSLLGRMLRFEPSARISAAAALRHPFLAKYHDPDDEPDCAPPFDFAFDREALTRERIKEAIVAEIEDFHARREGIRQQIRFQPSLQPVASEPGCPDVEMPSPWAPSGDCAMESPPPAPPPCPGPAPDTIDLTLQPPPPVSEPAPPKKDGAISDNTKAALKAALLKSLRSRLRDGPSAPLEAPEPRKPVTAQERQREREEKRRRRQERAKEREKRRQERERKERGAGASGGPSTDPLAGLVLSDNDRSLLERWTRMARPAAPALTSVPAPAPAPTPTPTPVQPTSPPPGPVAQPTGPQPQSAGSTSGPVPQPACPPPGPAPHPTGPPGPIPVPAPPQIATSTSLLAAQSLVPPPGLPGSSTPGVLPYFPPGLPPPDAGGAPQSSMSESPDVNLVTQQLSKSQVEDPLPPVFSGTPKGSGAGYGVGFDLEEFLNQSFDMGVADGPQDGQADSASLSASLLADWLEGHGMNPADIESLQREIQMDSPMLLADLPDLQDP"}, "DDR2": {"target": "DDR2 (Homo sapiens, UniProt Q16832)"}, "SLK": {"target": "SLK (Homo sapiens, UniProt Q9H2G2)"}, "MAP4K2": {"target": "MAP4K2 (Homo sapiens, UniProt Q12851)", "sequence (Q12851 whole entry)": "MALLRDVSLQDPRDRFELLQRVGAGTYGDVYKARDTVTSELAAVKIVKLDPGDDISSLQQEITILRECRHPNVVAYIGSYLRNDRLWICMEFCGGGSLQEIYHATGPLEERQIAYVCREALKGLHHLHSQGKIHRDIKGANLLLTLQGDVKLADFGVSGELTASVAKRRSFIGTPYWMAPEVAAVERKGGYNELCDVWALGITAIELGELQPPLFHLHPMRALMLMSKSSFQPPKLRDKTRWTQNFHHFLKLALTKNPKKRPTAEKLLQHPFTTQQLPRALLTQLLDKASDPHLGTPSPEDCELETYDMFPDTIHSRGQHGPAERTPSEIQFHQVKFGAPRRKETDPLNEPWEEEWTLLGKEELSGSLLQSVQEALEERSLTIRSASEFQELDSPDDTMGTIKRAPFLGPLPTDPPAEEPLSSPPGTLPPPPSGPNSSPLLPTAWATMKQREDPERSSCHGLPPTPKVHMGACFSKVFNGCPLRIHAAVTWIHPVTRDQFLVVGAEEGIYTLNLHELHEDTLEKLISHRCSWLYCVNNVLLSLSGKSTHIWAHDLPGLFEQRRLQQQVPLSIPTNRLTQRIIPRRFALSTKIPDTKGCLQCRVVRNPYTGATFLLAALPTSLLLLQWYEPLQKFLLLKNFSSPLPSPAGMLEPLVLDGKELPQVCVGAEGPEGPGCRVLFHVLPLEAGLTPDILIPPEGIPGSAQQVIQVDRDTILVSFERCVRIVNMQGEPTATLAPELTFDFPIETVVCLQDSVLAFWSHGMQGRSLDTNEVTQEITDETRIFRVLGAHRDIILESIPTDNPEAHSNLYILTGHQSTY"}, "PIP4K2B": {"target": "PIP4K2B (Homo sapiens, UniProt P78356)"}, "MAPKAPK5": {"target": "MAPKAPK5 (Homo sapiens, UniProt Q8IW41)", "sequence (Q8IW41 whole entry)": "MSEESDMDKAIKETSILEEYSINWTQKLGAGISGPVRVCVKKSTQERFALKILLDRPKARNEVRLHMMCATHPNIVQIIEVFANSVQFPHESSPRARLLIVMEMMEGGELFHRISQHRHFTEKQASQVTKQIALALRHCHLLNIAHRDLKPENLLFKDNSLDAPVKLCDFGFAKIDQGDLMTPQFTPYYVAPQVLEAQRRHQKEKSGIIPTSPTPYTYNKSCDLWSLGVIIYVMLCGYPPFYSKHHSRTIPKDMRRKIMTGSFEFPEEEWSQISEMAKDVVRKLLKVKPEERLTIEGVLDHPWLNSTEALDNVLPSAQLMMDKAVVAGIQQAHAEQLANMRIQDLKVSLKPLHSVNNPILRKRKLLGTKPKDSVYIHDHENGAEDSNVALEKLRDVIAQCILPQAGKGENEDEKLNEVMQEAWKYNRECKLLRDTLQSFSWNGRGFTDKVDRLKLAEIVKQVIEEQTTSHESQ"}, "CAMK2G": {"target": "CAMK2G (Homo sapiens, UniProt Q13555)"}, "mTOR": {"target": "mTOR (Homo sapiens, UniProt P42345)"}, "LIMK1": {"target": "LIMK1 (Homo sapiens, UniProt P53667)"}, "KIT": {"target": "KIT (Homo sapiens, UniProt P10721)", "sequence (P10721 whole entry)": "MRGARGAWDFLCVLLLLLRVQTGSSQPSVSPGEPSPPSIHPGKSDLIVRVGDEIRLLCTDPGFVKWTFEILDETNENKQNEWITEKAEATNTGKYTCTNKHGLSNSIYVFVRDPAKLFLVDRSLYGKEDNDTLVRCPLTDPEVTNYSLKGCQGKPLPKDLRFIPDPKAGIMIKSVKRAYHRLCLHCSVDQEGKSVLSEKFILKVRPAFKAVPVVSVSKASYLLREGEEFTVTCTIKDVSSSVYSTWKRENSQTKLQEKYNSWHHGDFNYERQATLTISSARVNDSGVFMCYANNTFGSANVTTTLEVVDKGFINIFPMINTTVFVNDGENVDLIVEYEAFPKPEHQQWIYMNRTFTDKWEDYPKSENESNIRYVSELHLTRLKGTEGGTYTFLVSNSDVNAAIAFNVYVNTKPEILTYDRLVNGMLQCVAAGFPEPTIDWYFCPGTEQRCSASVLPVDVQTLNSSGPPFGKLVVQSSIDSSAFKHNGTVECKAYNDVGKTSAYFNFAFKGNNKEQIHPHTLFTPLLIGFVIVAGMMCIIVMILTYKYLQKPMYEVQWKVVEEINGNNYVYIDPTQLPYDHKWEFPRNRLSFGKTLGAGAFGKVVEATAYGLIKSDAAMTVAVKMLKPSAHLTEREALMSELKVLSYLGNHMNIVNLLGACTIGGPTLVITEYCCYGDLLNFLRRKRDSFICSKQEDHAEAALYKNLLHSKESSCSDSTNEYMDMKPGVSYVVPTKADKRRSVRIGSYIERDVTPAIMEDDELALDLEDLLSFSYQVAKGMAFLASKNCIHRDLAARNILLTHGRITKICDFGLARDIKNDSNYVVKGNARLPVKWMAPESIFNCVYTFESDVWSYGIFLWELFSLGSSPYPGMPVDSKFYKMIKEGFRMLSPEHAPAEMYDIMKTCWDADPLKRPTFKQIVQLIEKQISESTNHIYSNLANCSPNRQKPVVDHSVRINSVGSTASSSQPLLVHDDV"}, "TYRO3": {"target": "TYRO3 (Homo sapiens, UniProt Q06418)"}, "GAK": {"target": "GAK (Homo sapiens, UniProt O14976)"}, "RPS6KA4": {"target": "RPS6KA4 (Homo sapiens, UniProt O75676)"}, "YWHAZ": {"target": "YWHAZ (Homo sapiens, UniProt P63104)"}, "BRAF": {"target": "BRAF (Homo sapiens, UniProt P15056)"}, "NTRK1": {"target": "NTRK1 (Homo sapiens, UniProt P04629)", "sequence (P04629 whole entry)": "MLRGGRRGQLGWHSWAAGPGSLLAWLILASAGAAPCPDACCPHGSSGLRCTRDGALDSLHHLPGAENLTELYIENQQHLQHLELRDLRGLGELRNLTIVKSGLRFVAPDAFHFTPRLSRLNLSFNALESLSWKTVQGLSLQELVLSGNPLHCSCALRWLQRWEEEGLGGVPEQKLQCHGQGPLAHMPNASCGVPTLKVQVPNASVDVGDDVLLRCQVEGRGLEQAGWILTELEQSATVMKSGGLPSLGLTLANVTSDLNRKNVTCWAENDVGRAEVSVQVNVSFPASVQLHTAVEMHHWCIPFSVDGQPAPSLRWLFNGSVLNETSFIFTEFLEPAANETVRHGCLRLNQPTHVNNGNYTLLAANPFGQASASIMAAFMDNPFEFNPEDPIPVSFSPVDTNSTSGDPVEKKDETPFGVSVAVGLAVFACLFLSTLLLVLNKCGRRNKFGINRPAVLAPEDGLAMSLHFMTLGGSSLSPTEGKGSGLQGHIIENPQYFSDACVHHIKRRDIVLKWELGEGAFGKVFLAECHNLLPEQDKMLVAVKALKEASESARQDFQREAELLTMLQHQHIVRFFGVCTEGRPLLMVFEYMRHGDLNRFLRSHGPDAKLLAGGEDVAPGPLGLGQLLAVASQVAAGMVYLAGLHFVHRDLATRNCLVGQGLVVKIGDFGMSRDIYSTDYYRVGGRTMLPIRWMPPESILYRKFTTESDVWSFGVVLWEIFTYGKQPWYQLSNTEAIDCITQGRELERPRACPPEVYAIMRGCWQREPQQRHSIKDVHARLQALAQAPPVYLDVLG"}, "PRKCQ": {"target": "PRKCQ (Homo sapiens, UniProt Q04759)"}}}
{"smiles": "COc1nc(N[C@H]2CC[C@H](NS(=O)(=O)CC(C)C)CC2)nc2[nH]nc(N3CCOC[C@H]3C)c12", "note": "[compound 39, N-(trans-4-((4-Methoxy-3-((R)-3-methylmorpholino)-1H-pyrazolo[3,4-d]pyrimidin-6-yl)amino)cyclohexyl)-2-methylpropane-1-sulfonamide]", "values": [{"measurement": "IC50", "setting": "MET", "value": "≥ 20", "unit": "µM"}, {"measurement": "IC50", "setting": "CLK2", "value": "≥ 20", "unit": "µM"}, {"measurement": "IC50", "setting": "TYK2", "value": "≥ 20", "unit": "µM"}, {"measurement": "IC50", "setting": "MAP4K4", "value": "≥ 20", "unit": "µM"}, {"measurement": "IC50", "setting": "MAPK7", "value": "≥ 20", "unit": "µM"}, {"measurement": "IC50", "setting": "DDR2", "value": "≥ 20", "unit": "µM"}, {"measurement": "IC50", "setting": "SLK", "value": "≥ 20", "unit": "µM"}, {"measurement": "IC50", "setting": "MAP4K2", "value": "≥ 20", "unit": "µM"}, {"measurement": "IC50", "setting": "PIP4K2B", "value": "≥ 20", "unit": "µM"}, {"measurement": "IC50", "setting": "MAPKAPK5", "value": 6.2, "unit": "µM"}, {"measurement": "IC50", "setting": "CAMK2G", "value": "≥ 20", "unit": "µM"}, {"measurement": "IC50", "setting": "mTOR", "value": "≥ 20", "unit": "µM"}, {"measurement": "IC50", "setting": "LIMK1", "value": "≥ 20", "unit": "µM"}, {"measurement": "IC50", "setting": "KIT", "value": "≥ 20", "unit": "µM"}, {"measurement": "IC50", "setting": "TYRO3", "value": "≥ 20", "unit": "µM"}, {"measurement": "IC50", "setting": "GAK", "value": "≥ 20", "unit": "µM"}, {"measurement": "IC50", "setting": "RPS6KA4", "value": "≥ 20", "unit": "µM"}, {"measurement": "IC50", "setting": "YWHAZ", "value": "≥ 20", "unit": "µM"}, {"measurement": "IC50", "setting": "BRAF", "value": "≥ 20", "unit": "µM"}, {"measurement": "IC50", "setting": "NTRK1", "value": "≥ 20", "unit": "µM"}, {"measurement": "IC50", "setting": "PRKCQ", "value": "≥ 20", "unit": "µM"}]}
